From patent US6821991B2, “2-substituted thiazolidinones as β-3 adrenergic receptor agonists” (Wyeth, priority 2000, dated 2004)

Assays:
β3-adrenergic receptor = biological target: T1, β3-adrenergic receptor (Homo sapiens, UniProt P13945); assay: cAMP accumulation (SPA) in CHO cells transfected with human β3 adrenergic receptor; type: cell-based; conditions: for EC50: CHO cells expressing human β3-AR, cAMP, 30 min, 37° C., 10^-9 M to 10^-5 M; for IA(β3): maximal response relative to maximal response of isoproterenol at 10^-5 M
T1 construct: Full length β3 AR clones (402 amino acids) containing the last 6 amino acids of hβ3-AR are prepared; expressed in transfected cells; host or cells: CHO (Chinese hamster ovary) cells
T1 sequence (P13945 whole entry): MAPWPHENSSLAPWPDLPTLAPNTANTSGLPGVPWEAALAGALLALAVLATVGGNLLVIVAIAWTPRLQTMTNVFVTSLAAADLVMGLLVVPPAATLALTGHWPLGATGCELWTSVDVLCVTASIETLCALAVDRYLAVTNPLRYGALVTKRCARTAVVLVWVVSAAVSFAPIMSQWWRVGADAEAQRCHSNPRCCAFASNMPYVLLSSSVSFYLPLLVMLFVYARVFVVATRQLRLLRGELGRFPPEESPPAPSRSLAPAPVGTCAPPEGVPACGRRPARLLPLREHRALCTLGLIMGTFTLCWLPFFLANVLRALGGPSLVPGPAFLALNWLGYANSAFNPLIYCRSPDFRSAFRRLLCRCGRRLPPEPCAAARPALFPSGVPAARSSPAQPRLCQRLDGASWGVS
Experimental: The ability of compounds of this invention to treat or inhibit disorders related to insulin resistance or hyperglycemia was established with representative compounds of this invention in the following standard pharmacological test procedures, which measured the binding selectivity to the β1, β2, and β3 adrenergic receptors. Binding to the receptors was measured in Chinese Hamster ovary (CHO) cells that were transfected with adrenergic receptors.
Cloning of Human β3-AR Genomic DNA: CDNA was constructed by ligating four polymerase chain reaction (PCR) products using the following primers: an ATG-Narl fragment, sense primer 5′-[…]3′, and anti-sense primer 5′[…]3′; a Narl-Accl fragment, 5′[…]3′ as sense and 5′[…]3′ as anti-sense primer; an Accli-Styl fragment, sense primer 5′[…]3′ and anti-sense primer 5′[…]3′ and a Styl-TAG fragment, with sense primer 5′[…]3′ and anti-sense primer 5′[…]3′. The corresponding primer sequences are described in Mantzoros, C. […] The four fragments are ligated into a pUC 18 plasmid (Gibco-BRL) and sequenced.
Binding Procedure: Clones expressing receptor levels of 70 to 110 fmoles/mg protein were used in the test procedures. CHO cells were grown in 24-well tissue culture plates in Dulbecco's Modified Eagle Media with 10% fetal bovine serum, MEM non-essential amino acids, Penicillin-Streptompycin and Geneticin. On the day of test procedure, growth medium was replaced with preincubation media (Dulbecco's Modified Eagle Media) and incubated for 30 minutes at 37° C. […] Test compounds were tested over a concentration range of 10^−9 M to 10^−5 M for β3 cells and 10^−8 to 10^−4 M for β1 and β2 transfected cells. Isoproterenol (10^−5 M) was used as an internal standard for comparison of activity. Cells were incubated at 37° C. on a rocker for 30 min with the β3 cells and 15 min for β1 and β2 cells. Incubation was stopped with the addition of 0.2N HCl and neutralized with 2.5N NaOH. The plates, containing the cells and neutralized media, were stored at −20 degrees celsius until ready to test for cAMP using the SPA test kit (Amersham).
Data Analysis and Results: Data collected from the SPA test procedure were analyzed as per cent of the maximal isoproterenol response at 10^−5 M. Activity curves were plotted using the SAS statistical and graphics software.

| EC50 (β3-adrenergic receptor) | IA(β3) (β3-adrenergic receptor) | melting point | Structure (SMILES) |
| --- | --- | --- | --- |
| 230 nM | 0.6 | > 175 °C (dec.) | O=C1N=C(NC2CCN(Cc3ccccc3)CC2)SC1=Cc1ccc(N2CCC(NC[C@H](O)COc3ccc(O)cc3)CC2)cc1 [Example 4, 2-(1-Benzyl-piperidin-4-ylamino)-5-(4-{(2S)-4-[2-hydroxy-3-(4-hydroxy-phenoxy)-propylamino]-piperidin-1-yl}-benzylidene)-thiazol-4-one] |
| 1920 nM | 1.0 | > 210 °C (dec.) | CN1CCN(C2=NC(=O)C(=Cc3ccc(N4CCC(NC[C@H](O)COc5ccc(O)cc5)CC4)cc3)S2)CC1 [Example 24, 5-(4-{4-[(2S)-2-Hydroxy-3-(4-hydroxy-phenoxy)-propylamino]-piperidin-1-yl}-benzylidene)-2-(4-methyl-piperazin-1-yl)-thiazol-4-one] |
| 1 nM | 1.0 | > 130 °C (dec.) | CCOC(=O)CC[C@H](NC1=NC(=O)C(=Cc2ccc(N3CCC(NC[C@H](O)c4ccc(O)c(NS(C)(=O)=O)c4)CC3)cc2)S1)C(=O)OCC [Example 30, (2S)-2-[5-(4-{4-[(2R)-2-Hydroxy-2-(4-hydroxy-3-methanesulfonylamino-phenyl)-ethylamino]-piperidin-1-yl}-benzylidene)-4-oxo-4,5-dihydro-thiazol-2-ylamino]-pentanedioic acid diethyl ester] |
| 156 nM | 0.85 | 166 to 168 °C (dec.) | CN(C)CCCNC1=NC(=O)C(=Cc2ccc(N3CCC(NC[C@H](O)COc4ccccc4)CC3)cc2)S1 [Example 26, 2-(3-Dimethylamino-propylamino)-5-{4-[4-((2S)-2-hydroxy-3-phenoxy-propylamino)-piperidin-1-yl]-benzylidene}-thiazol-4-one] |
| 210 nM | 0.84 |  | Cl.O=C1N=C(N2CCCCC2)SC1=Cc1ccc(OCCNC[C@H](O)COc2ccc(O)cc2)cc1 [Example 31, 5-(4-{2-[(2S)-2-Hydroxy-3-(4-hydroxy-phenoxy)-propylamino]-ethoxy}-benzylidene)-2-piperidin-1-yl-thiazol-4-one hydrochloride salt] |
| 9 nM | 1.0 | > 160 °C (dec.) | CNC1=NC(=O)C(=Cc2ccc(N3CCC(NC[C@H](O)COc4cccc5[nH]c(=O)[nH]c45)CC3)cc2)S1 [Example 1, 4-((2S)-2-Hydroxy-3-{1-[4-(2-methylamino-4-oxo-4H-thiazol-5-ylidenemethyl)-phenyl]-piperidin-4-ylamino}-propoxy)-1,3-dihydrobenzoimidazol-2-one] |
| 2 nM | 0.86 |  | CS(=O)(=O)Nc1cc(C(O)CNCCOc2ccc(C=C3SC(N4CCCCC4)=NC3=O)cc2)ccc1O (centres unmarked) [Example 33, N-[2-Hydroxy-5-(1-hydroxy-2-{2-[4-(4-oxo-2-piperidin-1-yl-4H-thiazol-5-ylidenemethyl)-phenoxy]-ethylamino}-ethyl)-phenyl]-methanesulfonamide] |
| 30 nM | 0.52 | > 165 °C (dec.) | O=C1N=C(NC2CCN(Cc3ccccc3)CC2)SC1=Cc1ccc(N2CCC(NC[C@H](O)COc3cccc4[nH]c(=O)[nH]c34)CC2)cc1 [Example 3, 4-[(2S)-3-(1-{4-[2-(1-Benzyl-piperidin-4-ylamino)-4-oxo-4H-thiazol-5-ylidenemethyl]-phenyl}-piperidin-4-ylamino)-2-hydroxy-propoxy]-1,3-dihydro-benzoimidazol-2-one] |
| 76 nM | 0.78 | > 100 °C (dec.) | O=C1N=C(N2CCOCC2)SC1=Cc1ccc(N2CCC(NC[C@H](O)COc3ccc(O)cc3)CC2)cc1 [Example 23, 5-(4-{4-[(2S)-2-Hydroxy-3-(4-hydroxy-phenoxy)-propylamino]-piperidin-1-yl}-benzylidene)-2-morpholin-4-yl-thiazol-4-one] |
| 22 nM | 1.0 | > 140 °C (dec.) | O=C1N=C(NCCN2CCOCC2)SC1=Cc1ccc(N2CCC(NC[C@H](O)COc3cccc4[nH]c(=O)[nH]c34)CC2)cc1 [Example 2, 4-[(2S)-2-Hydroxy-3-(1-{4-[2-(2-morpholin-4-ylethylamino)-4-oxo-4H-thiazol-5-ylidenemethyl]-phenyl}-piperidin-4-ylamino)-propoxy]-1,3-dihydrobenzoimidazol-2-one] |
| 450 nM | 0.51 | > 70 °C (dec.) | O=C1N=C(N2CCOCC2)SC1=Cc1ccc(N2CCC(NC[C@H](O)c3cccc(Cl)c3)CC2)cc1 [Example 25, 5-(4-{4-[(2R)-2-(3-Chloro-phenyl)-2-hydroxy-ethylamino]-piperidin-1-yl}-benzylidene)-2-morpholin-4-yl-thiazol-4-one] |
| 17 nM | 0.91 | > 270 °C (dec.) | O=C(O)CC[C@H](NC1=NC(=O)C(=Cc2ccc(N3CCC(NC[C@H](O)COc4cccc5[nH]c(=O)[nH]c45)CC3)cc2)S1)C(=O)O [Example 29, (2S)-2-[5-(4-{4-[(2S)-2-Hydroxy-3-(2-oxo-2,3-dihydro-1H-benzoimidazol-4-yloxy)-propylamino]-piperidin-1-yl}-benzylidene)-4-oxo-4,5-dihydro-thiazol-2-ylamino]-pentanedioic acid] |
|  | 0.58 | 182 to 184 °C (dec.) | CCCCCCNC1=NC(=O)C(=Cc2ccc(N3CCC(NC[C@H](O)COc4ccccc4)CC3)cc2)S1 [Example 27, 2-Hexylamino-5-{4-[4-((2S)-2-hydroxy-3-phenoxy-propylamino)-piperidin-1-yl]-benzylidene}-thiazol-4-one] |
| 3 nM | 0.89 | > 150 °C (dec.) | O=C1N=C(N2CCOCC2)SC1=Cc1ccc(N2CCC(NC[C@H](O)COc3cccc4[nH]c(=O)[nH]c34)CC2)cc1 [Example 18, 4-((2S)-2-Hydroxy-3-{1-[4-(2-morpholin-4-yl-4-oxo-4H-thiazol-5-ylidenemethyl)-phenyl]-piperidin-4-ylamino}-propoxy)-1,3-dihydro-benzoimidazol-2-one] |
|  |  | > 150 °C (dec.) | CN1CCN(C2=NC(=O)C(=Cc3ccc(N4CCC(NC[C@H](O)COc5cccc6[nH]c(=O)[nH]c56)CC4)cc3)S2)CC1 [Example 19, 4-[(2S)-2-Hydroxy-3-(1-{4-[2-(4-methyl-piperazin-1-yl)-4-oxo-4H-thiazol-5-ylidenemethyl]-phenyl}-piperidin-4-ylamino)-propoxy]-1,3-dihydro-benzoimidazol-2-one] |
| 88 nM | 0.33 |  | Cl.O=C1N=C(N2CCCCC2)SC1=Cc1ccc(OCCNC[C@H](O)COc2ccccc2)cc1 [Example 32, 5-{4-[2-((2S)-2-Hydroxy-3-phenoxy-propylamino)-ethoxy]-benzylidene}-2-piperidin-1-yl-thiazol-4-one hydrochloride salt] |
| 8 nM | 0.75 | > 120 °C (dec.) | CCOC(=O)CCNC1=NC(=O)C(=Cc2ccc(N3CCC(NC[C@H](O)COc4cccc5[nH]c(=O)[nH]c45)CC3)cc2)S1 [Example 8, 3-[5-(4-{4-[(2S)-2-Hydroxy-3-(2-oxo-2,3-dihydro-1H-benzoimidazol-4-yloxy)-propylamino]-piperidin-1-yl}-benzylidene)-4-oxo-4,5-dihydro-thiazol-2-ylamino]-propionic acid ethyl ester] |
| 3 nM | 1.0 | > 115 °C (dec.) | O=C1CCc2c(OC[C@@H](O)CNCCOc3ccc(C=C4SC(N5CCCCC5)=NC4=O)cc3)ccc(O)c2N1 [Example 34, 8-Hydroxy-5-((2S)-2-hydroxy-3-{2-[4-(4-oxo-2-piperidin-1-yl-4H-thiazol-5-ylidenemethyl)-phenoxy]-ethylamino}-propoxy)-3,4-dihydro-1H-quinolin-2-one] |
| 7 nM | 0.81 |  | O=C(O)CCNC1=NC(=O)C(=Cc2ccc(N3CCC(NC[C@H](O)COc4cccc5[nH]c(=O)[nH]c45)CC3)cc2)S1 [Example 9, 3-[5-(4-{4-[(2S)-2-Hydroxy-3-(2-oxo-2,3-dihydro-1H-benzoimidazol-4-yloxy)-propylamino]-piperidin-1-yl}-benzylidene)-4-oxo-4,5-dihydro-thiazol-2-ylamino]-propionic acid] |
